Results as given in US20260335314A1, “CRYSTALLINE SALTS OR AMORPHOUS FORMS OF 2-((1H-PYRAZOL-3-YL)METHYL)-6-((6-AMINOPYRIDIN-2-YL)METHYL)-4-METHYL-4,6-DIHYDRO -5H-THIAZOLO[5',4':4,5]PYRROLO[2,3-D]PYRIDAZIN-5-ONE” (Agios Pharmaceuticals, Inc., priority 2023, published 2026).

Tests used:
pH solubility in buffers = format: physicochemical; details: for pH (24 h): pH of solution at 24 h
Description: (§1) Solubility samples were prepared by weighing about 10 mg of each salt and adding 1 mL of media and vortexed briefly to obtain suspensions. […] For such instances, the solubility is calculated as greater than (>).
(§2) The sample vials were capped and wrapped in aluminum foil, and placed on a shaker at 37° C. The shaker was set at about 100 rpm and vials were removed at specified time points. The vials were observed, and the supernatants were transferred to Eppendorf tubes and centrifuged at 3K for 10 minutes. The clear supernatants were transferred to HPLC vials. The samples were diluted prior to HPLC analysis using the dilution media by 2× or used without dilution. pH was measured of the 24 hour timepoint after centrifugation using a micro pH probe.
(§3) • pH 2 buffer USP: Mixed 50 mL of 0.2M potassium chloride and 13 mL 0.2M HCl, diluted to 200 mL with water. • pH 4.5 buffer USP: 5.44 g of potassium dihydrogen phosphate was diluted to 1000 mL with water. • pH 6.8 buffer USP: Mixed 50 mL of 0.2M potassium phosphate and 22.4 mL 0.2M sodium hydroxide. Diluted with water to 200 mL. • SGF: 2.0109 g of NaCl was dissolved in water, added 7 mL of conc. HCl and diluted to 1 L. • FeSSIF: 4.0321 g of NaOH and 11.8726 g of NaCl were dissolved in water, added 8.65 mL of glacial acetic acid, adjusted the pH to 5.0 and diluted to 1 L. • FaSSIF: 0.4247 g of NaOH, 3.9548 g of sodium phosphate monobasic monohydrate and 6.1900 g of NaCl were dissolved in water, adjusted the pH to 6.5 and diluted to 1 L.
At each time point, the solution was analyzed by HPLC and residue was vacuum dried and analyzed by XRPD. The pH of the solution was measured at 24 hours.

[1] = Kinetic solubility in biorelevant media; format: physicochemical; details: for solubility at 10 min / solubility at 0.5 h / solubility at 1 h / solubility at 2 h / solubility at 4 h / solubility at 24 h: 37 °C; for solubility at 0.5 h: 30 min
Description: as §1, §2
as §3, with “adjusted the pH to 5.0 and diluted to 1 L. • FaSSIF:” left out
Kinetic solubility was determined in biorelevant media. At each time point, the solution was analyzed by HPLC. The solid residue was analyzed by XRPD at selected time points. The pH of the solution was measured at 24 hours.

[2] = Pharmacokinetics / absolute bioavailability in male Sprague Dawley rats; format: in vivo; details: oral gavage, 10 mg/kg
Description: Twenty-one (21) male Sprague Dawley rats (purchased from Shanghai Laboratory Animal Center Co., Ltd., Shanghai, China) were randomized into 7 groups (3 animals per group). The animals fasted overnight, the forms of Compound 1 shown in Table 7 were administered by oral gavage, and the animals were fed 4 hours post-dose.
Blood was serially collected from each animal at 0 (pre-dose), 0.083, 0.25, 0.5, 1, 2, 4, 8, and 24 h post-dose. For each collection, the animal was restrained manually, and approximately 150 μL of blood sample was collected via the tail vein into K2EDTA tubes. Plasma samples were stored at approximately −70° C. until analysis.
To enable the calculation of absolute bioavailability, Compound 1 was formulated as a solution in 10% N-methyl-2-pyrrolidone, 10% Solutol HS 15, and 80% saline and administered at 1 mg/kg as intravenous (IV) bolus dose to a separate group of male Sprague Dawley rats, and blood samples were collected at similar timepoints to those shown above. Further, plasma samples were obtained from the collected samples and stored at approximately −70° C. until analysis.
The concentration of Compound 1 in the plasma samples was determined by LC-MS/MS analysis.
A 20 μL aliquot of each plasma sample was mixed with 200 μL of acetonitrile containing glipizide as an internal standard (40 ng/mL). The resulting mixture was vortexed at 1500 rpm for 2 min and centrifuged at 5800 rpm for 10 min. A 1 μL sample from the supernatant was injected into LC-MS/MS.
LC-MS/MS analysis was conducted on a UPLC/MS-MS (API 6500+) system under the conditions outlined in Table 8
The absolute bioavailability of each form of Compound 1 was determined by dividing the AUCinf of the form in question by the AUCinf obtained historical data by IV administration of Compound 1.

[3] = Dynamic vapor sorption (moisture uptake); format: physicochemical; details: 25° C., from 5% to 95% relative humidity
Description: Dynamic Vapor Sorption (DVS) was carried out using a TA Instruments Q5000 Dynamic Vapor Sorption analyzer. The instrument was calibrated with standard weights and a sodium bromide standard for humidity. Approximately 10-25 mg of sample was loaded into a metal-coated quartz pan for analysis. […] The movement from one step to the next occurred either after satisfying the equilibrium criterion of 0.01% weight change or, if the equilibrium criterion was not met, after one hour. The percent weight change values were calculated using Microsoft Excel®.

[4] = ph 2 buffer (usp), pH 2, pH 2 (USP), 37 °C
[5] = ph 4.5 buffer (usp), pH 4.5, pH 4.5 (USP), 37 °C
[6] = ph 6.8 buffer (usp), pH 6.8, pH 6.8 (USP), 37 °C
[7] = fassif, pH 5, FaSSIF pH 5.0 (so in the source)
[8] = fessif, pH 6.5, FeSSIF pH 6.5 (so in the source)

Cn1c2nc(Cc3cc[nH]n3)sc2c2cnn(Cc3cccc(N)n3)c(=O)c21.O=C(O)C(O)C(O)C(=O)O (racemic) [Form C]
dissolution in 0.1N HCl (pH solubility in buffers; 0.1N HCl): dissolved instantly | pH (24 h) (pH solubility in buffers; 0.1 N HCl): 1.27 | solubility (pH solubility in buffers; 0.1 n hcl, 37 °C, dissolved instantly, estimated by adding 100 uL aliquots, read-out: solubility): > 10900 µg/mL | pH solubility, overall (pH solubility in buffers; buffers pH 1 to pH 6.8): highest solubility | pH (24 h) (pH solubility in buffers; pH 2 (USP)): 2.52 | pH (24 h) (pH solubility in buffers; pH 4.5 (USP)): 3.92 | pH (24 h) (pH solubility in buffers; pH 6.8 (USP)): 3.54 | solubility at 2 h (pH solubility in buffers; [4]): 3810 µg/mL | solubility at 24 h (pH solubility in buffers; [4]): 2460 µg/mL | solubility at 2 h (pH solubility in buffers; [5]): 150 µg/mL | solubility at 24 h (pH solubility in buffers; [5]): 120 µg/mL | solubility at 2 h (pH solubility in buffers; [6]): 370 µg/mL | solubility at 24 h (pH solubility in buffers; [6]): 330 µg/mL | pH (24 h) ([1]; FaSSIF pH 5.0 (so in the source), pH of solution at 24 h): 4.60 | pH (24 h) ([1]; FeSSIF pH 6.5 (so in the source), pH of solution at 24 h): 3.35 | pH (24 h) ([1]; SGF pH 1.2, pH of solution at 24 h): 1.13 | kinetic solubility, overall ([1]; all media tested): highest solubility in all media tested | solubility at 10 min [1, 7]: 650 µg/mL | solubility at 0.5 h [1, 7]: 310 µg/mL | solubility at 1 h [1, 7]: 250 µg/mL | solubility at 2 h [1, 7]: 200 µg/mL | solubility at 4 h [1, 7]: 100 µg/mL | solubility at 24 h [1, 7]: 120 µg/mL | solubility at 10 min [1, 8]: 530 µg/mL | solubility at 0.5 h [1, 8]: 860 µg/mL | solubility at 1 h [1, 8]: 910 µg/mL | solubility at 2 h [1, 8]: 990 µg/mL | solubility at 4 h [1, 8]: 810 µg/mL | solubility at 24 h [1, 8]: 20 µg/mL | solubility ([1]; sgf, pH 1.2, SGF pH 1.2, 37 °C, dissolved instantly, from total volume of media added, read-out: solubility): > 11100 µg/mL | dissolution in SGF ([1]; simulated gastric fluid (SGF)): dissolved instantly | absolute bioavailability, comparison with other forms [2]: higher than the measured bioavailability of the other forms of Compound 1 | bioavailability ([2]; rat, plasma, po, vs historical IV AUCinf, read-out: Absolute % F): 91% | AUC(0-inf) ([2]; rat, plasma, po, fasted overnight): 14200 ng·h/mL | moisture uptake (DVS) [3]: about 0.06%
